According to patent publication EP4567032A1, “KIF18A INHIBITOR COMPOUND, AND PHARMACEUTICAL COMPOSITION AND PREPARATION METHOD THEREFOR AND USE THEREOF” (Changchun Genescience Pharmaceutical Co., Ltd., priority 2022, dated 2024):

Test system: OVCAR-3 cells
Assay: imaging-based nuclear count analysis (NCA) in OVCAR-3 cells
Type: cell-based
Details: cultured 4 days, Hoechst 33342 nuclear count, 0.1% DMSO
Experimental: Test name: imaging-based nuclear count analysis (NCA) in OVCAR-3 cells
• a) When the cell confluence reached 80%-90%, the cells were treated. • b) The cells were resuspended in a medium and then counted and diluted at a desired density. • c) A cell suspension containing appropriate cells was added to the 384-well plate at 30 µL/well: 600 cells/well.
• a) 30 µL of 8% fixative (final concentration 4%) was added and the plate was incubated at room temperature for 30 min. • b) The plate was centrifuged at 1000RPM for 30s. • c) The plate was washed twice with 60 µl/well PBS. • d) After immobilization, the cells were permeabilized and stained in 60 µL of a wash buffer containing 2 µg/mL Hoechst 33342 DNA dye (1% BSA, 0.2% Triton X-100, 1X PBS). • e) The plate was sealed and incubated at room temperature in the dark for 1 h. • f) It was washed with PBS 3 times. • g) 50µLPBS/well was added and the plate was scanned using HCS. • h) Data acquisition and detection
High-reading control wells: cells + 30 nL DMSO; low-reading control wells: 10 µM AM-5308.
IC50 (nM) was calculated using GraphPad Prism 8 software and the effect-dose curves of the compound were plotted. Table 1 Bioactivity data of the compound of the present application

SMILES | IC50 (Homo sapiens, 96 h) [nM] | IC50 [nM]
O=C(Nc1cccc2ccccc12)c1ccc(NS(=O)(=O)CCO)cc1N1CCC2(CC1)CC2 [Compound 2, 2-{6-azaspiro[2.5]octan-6-yl}-4-(2-hydroxyethanesulfonylamino) -N-(naphthalen-1-yl)benzamide] | 568 | –
Cc1ccc2c(NC(=O)c3ccc(NS(=O)(=O)CCO)cc3N3CCC4(CC3)CC4)cccc2c1 [Compound 4, 2-{6-azaspiro[2.5]octan-6-yl}-4-(2-hydroxyethanesulfonylamino) -N-(6-methylnaphthalen-1-yl)benzamide] | 478 | –
O=C(Nc1cccc2cc(Cl)ccc12)c1ccc(NS(=O)(=O)CCO)cc1N1CCC2(CC1)CC2 [Compound 5, {6-azaspiro[2.5]octan-6-yl}-N-(6-chloronaphthalen-1-yl)-4-(2-hydroxyethanesulfonylamino) benzamide] | 369 | –
O=C(Nc1cccc2ccc(F)cc12)c1ccc(NS(=O)(=O)CCO)cc1N1CCC2(CC1)CC2 [Compound 6, 2-{6-azaspiro[2.5]octan-6-yl}-N-(7-fluoronaphthalen-1-yl)-4-(2-hydroxyethanesulfonylamino) benzamide] | 976 | –
O=C(Nc1cccc2cc(C(F)(F)F)ccc12)c1ccc(NS(=O)(=O)CCO)cc1N1CCC2(CC1)CC2 [Compound 7, 2-{6-azaspiro[2.5]octan-6-yl}-4-(2-hydroxyethanesulfonylamino) -N-(6-(trifluoromethyl)naphthalen-1-yl)benzamide] | 458 | –
O=C(Nc1cccc2c1CCC1(CCCC1)C2)c1ccc(NS(=O)(=O)CCO)cc1N1CCC2(CC1)CC2 [Compound 51, 2-{6-azaspiro[2.5]octan-6-yl}-N-{3',4'-dihydro-1'H-spiro[cyclopentane-1,2'-naphthalen]-5'-yl}-4-(2-hydroxyethanesulfonylamino)benzamide] | 258 | –
O=C(Nc1cccc2c1CCC1(CC1)C2)c1ccc(NS(=O)(=O)CCO)cc1N1CCC2(CC1)CC2 [Compound 56, 2-{6-azaspiro[2.5]octan-6-yl}-N-{3',4'-dihydro-1'H-spiro[cyclopropane-1,2'-naphthalen]-5'-yl}-4-(2-hydroxyethanesulfonylamino)benzamide] | 73.1 | –
Cc1cc(NC(=O)c2ccc(NS(=O)(=O)CCO)cc2N2CCC3(CC2)CC3)nc2c1nc1n2CC(F)(F)CC1 [Compound 64, N-(8,8-difluoro-4-methyl-pyrido[2,3-d]imidazo[1,2-a]piperidin-2-yl)-4-(2-hydroxyethanesulfonylamino)-2-(6-azaspiro[2.5]octan-6-yl)benzamide] | 763 | –

Second part, the compound after the results:

IC50 (Homo sapiens, 96 h) [nM] | IC50 [nM] | SMILES
71.2 | – | O=C(Nc1cccc2c1nc1n2CCC1(F)F)c1ccc(NS(=O)(=O)CCO)cc1C1=CCC2(CC1)CC2 [Compound 90, N-(3,3-difluoro-2,3-dihydro-1H-benzo[d]pyrrolo[1,2-a]imidazol-5-yl)-4-(2-hydroxyethanesulfonylamino)-2-(spiro[2.5]oct-5-en-6-yl)benzamide]
98.9 | – | COc1ccc2c(NC(=O)c3ccc(NS(=O)(=O)CCO)cc3N3CCC4(CC3)CC4)ccnc2c1 [Compound 95]
109 | – | Cc1cc(NC(=O)c2ccc(NS(=O)(=O)CCO)cc2N2CCC3(CC2)CC3)c2nc3n(c2c1)[C@H]1CC[C@@H]3C1 [Compound 99, 4-(2-hydroxyethanesulfonylamino)-N-((1S,4R)-8-methyl-1,2,3,4-tetrahydro-1,4-methylenebenzo[4,5]imidazo[1,2-a]pyridin-6-yl)-2-(6-azaspiro[2.5]octan-6-yl)benzamide]
– | 110 | O=C(Nc1cccc2c1nc1n2C2CCC1CC2)c1ccc(NS(=O)(=O)CCO)cc1N1CCC2(CC1)CC2 [Compound 100, 4-(2-hydroxyethanesulfonylamino)-2-(6-azaspiro[2.5]octan-6-yl)-N-(1,2,3,4-tetrahydro-1,4-ethylbenzo[4,5]imidazo[1,2-a]pyridin-6-yl)benzamide]
125 | – | CC1CCn2c1nc1c(NC(=O)c3ccc(NS(=O)(=O)CCO)cc3N3CCC4(CC3)CC4)cccc12 (centres unmarked) [Compound 106, 4-(2-hydroxyethanesulfonylamino) -N-(3-methyl-2,3-dihydro-1H-benzo[d]pyrrolo[1,2-a]imidazol-5-yl)-2-(6-azaspiro[2.5]octan-6-yl)benzamide]
183 | – | O=C(Nc1cccc2c1nc1n2CCCCC1)c1ccc(NS(=O)(=O)CCO)cc1C1=CCC2(CC1)CC2 [Compound 108, 4-(2-hydroxyethanesulfonylamino) -2-(spiro[2.5]oct-5-en-6-yl)-N-(7,8,9,10-tetrahydro-6H-benzo[4,5]imidazo[1,2-a]azepin-4-yl)benzamide]
161 | – | O=C(Nc1cccc2c1oc1ccccc12)c1ccc(NS(=O)(=O)CCO)cc1N1CCC2(CC1)CC2 [Compound 111, N-(dibenzo[b,d]furan-4-yl)-4-(2-hydroxyethanesulfonylamino)-2-(6-azaspiro[2.5]octan-6-yl)benzamide]
117 | – | O=C(Nc1ccnc2cc(C3CC3)ccc12)c1ccc(NS(=O)(=O)CCO)cc1N1CCC2(CC1)CC2 [Compound 112, 2-{6-azaspiro[2.5]octan-6-yl}-N-(7-cyclopropylquinolin-4-yl)-4-(2-hydroxyethylsulfonylamino)benzamide]
97.9 | – | O=C(Nc1cc(F)cc2c1nc1n2[C@H]2CC[C@@H]1C2)c1ccc(NS(=O)(=O)CCO)cc1N1CCC2(CC1)CC2 [Compound 113a, N-((1S,4R)-8-fluoro-1,2,3,4-tetrahydro-1,4-methylenebenzo[4,5]imidazo [1,2-a]pyridin-6-yl)4-(2-hydroxyethanesulfonylamino) -2-(6-azaspiro[2.5]octan-6-yl)benzamide]
